ChEMBL document CHEMBL3046424, “Growth inhibitory effects on fall armyworm Spodoptera frugiperda of some limonoids isolated from Cedrela spp. (Meliaceae)” (2000)
In brackets after ≈: the same amount, converted by molar mass.

Tests used:
Type in all cases: functional
[1] = tested on: Spodoptera frugiperda; assay: Insecticidal activity against Spodoptera frugiperda (fall armyworm) assessed as mean length at 10 ug/ml in artificial diet measured after 7 days (reference value: 28 +/- 4.1 mg)
[2] = tested on: Spodoptera frugiperda; assay: Insecticidal activity against Spodoptera frugiperda (fall armyworm) assessed as mean length at 15 ug/ml in artificial diet measured after 7 days (reference value: […])
[3] = tested on: Spodoptera frugiperda; assay: Insecticidal activity against Spodoptera frugiperda (fall armyworm) assessed as mean length at 25 ug/ml in artificial diet measured after 7 days (reference value: 28 +/- 4.1 mg)
[4] = tested on: Spodoptera frugiperda; assay: Insecticidal activity against Spodoptera frugiperda (fall armyworm) assessed as mean weight gain at 5 ug/ml in artificial diet measured after 7 days (reference value: 469.5 +/- 6.59 mg)
[5] = tested on: Spodoptera frugiperda; assay: Insecticidal activity against Spodoptera frugiperda (fall armyworm) assessed as mean emergence at 25 ug/ml in artificial diet (reference value: 83.3 %)
[6] = tested on: Spodoptera frugiperda; assay: Insecticidal activity against Spodoptera frugiperda (fall armyworm) assessed as mean emergence at 52 ug/ml in artificial diet (reference value: 83.3 %)
[7] = tested on: Spodoptera frugiperda; assay: Insecticidal activity against Spodoptera frugiperda (fall armyworm) assessed as mean pupation at 25 ug/ml in artificial diet (reference value: 87.5 %)
[8] = tested on: Spodoptera frugiperda; assay: Insecticidal activity against Spodoptera frugiperda (fall armyworm) assessed as mean pupation at 52 ug/ml in artificial diet (reference value: 87.5 %)
[9] = tested on: Spodoptera frugiperda; assay: Insecticidal activity against Spodoptera frugiperda (fall armyworm) assessed as mean emergence days at 5 ug/ml in artificial diet (reference value: 33 days)
[10] = tested on: Spodoptera frugiperda; assay: Insecticidal activity against Spodoptera frugiperda (fall armyworm) assessed as mean emergence days at 25 ug/ml in artificial diet (reference value: 33 days)
[11] = tested on: Spodoptera frugiperda; assay: Insecticidal activity against Spodoptera frugiperda (fall armyworm) assessed as mean emergence days at 52 ug/ml in artificial diet (reference value: 33 days)
[12] = tested on: Spodoptera frugiperda; assay: Insecticidal activity against Spodoptera frugiperda (fall armyworm) assessed as mean emergence at 5 ug/ml in artificial diet (reference value: 83.3 %)
[13] = tested on: Spodoptera frugiperda; assay: Insecticidal activity against Spodoptera frugiperda (fall armyworm) assessed as mean time to pupation at 5 ug/ml in artificial diet (reference value: 22 days)
[14] = tested on: Spodoptera frugiperda; assay: Insecticidal activity against Spodoptera frugiperda (fall armyworm) assessed as mean time to pupation at 25 ug/ml in artificial diet (reference value: 22 days)
[15] = tested on: Spodoptera frugiperda; assay: Insecticidal activity against Spodoptera frugiperda (fall armyworm) assessed as mean time to pupation at 52 ug/ml in artificial diet (reference value: 22 days)
[16] = tested on: Spodoptera frugiperda; assay: Insecticidal activity against Spodoptera frugiperda (fall armyworm) assessed as mean weight of pupae at 5 ug/ml in artificial diet (reference value: 281.5 +/- 10.3 mg)
[17] = tested on: Spodoptera frugiperda; assay: Insecticidal activity against Spodoptera frugiperda (fall armyworm) assessed as mean weight of pupae at 25 ug/ml in artificial diet (reference value: 281.5 +/- 10.3 mg)
[18] = tested on: Spodoptera frugiperda; assay: Insecticidal activity against Spodoptera frugiperda (fall armyworm) assessed as mean weight of pupae at 52 ug/ml in artificial diet (reference value: 281.5 +/- 10.3 mg)
[19] = tested on: Spodoptera frugiperda; assay: Insecticidal activity against Spodoptera frugiperda (fall armyworm) assessed as mean pupation at 5 ug/ml in artificial diet (reference value: 87.5 %)
[20] = tested on: Spodoptera frugiperda; assay: Insecticidal activity against Spodoptera frugiperda (fall armyworm) assessed as mean length at 39 ug/ml in artificial diet measured after 7 days (reference value: 28 +/- 4.1 mg)
[21] = tested on: Spodoptera frugiperda; assay: Insecticidal activity against Spodoptera frugiperda (fall armyworm) assessed as mean length at 52 ug/ml in artificial diet measured after 7 days (reference value: 28 +/- 4.1 mg)
[22] = tested on: Spodoptera frugiperda; assay: Insecticidal activity against Spodoptera frugiperda (fall armyworm) assessed as mean length at 5 ug/ml in artificial diet measured after 7 days (reference value: 28 +/- 4.1 mg)
[23] = tested on: Spodoptera frugiperda; assay: Insecticidal activity against Spodoptera frugiperda (fall armyworm) assessed as mean weight gain at 10 ug/ml in artificial diet measured after 7 days (reference value: 469.5 +/- 6.59 mg)
[24] = tested on: Spodoptera frugiperda; assay: Insecticidal activity against Spodoptera frugiperda (fall armyworm) assessed as mean weight gain at 15 ug/ml in artificial diet measured after 7 days (reference value: 469.5 +/- 6.59 mg)
[25] = tested on: Spodoptera frugiperda; assay: Insecticidal activity against Spodoptera frugiperda (fall armyworm) assessed as mean weight gain at 25 ug/ml in artificial diet measured after 7 days (reference value: 469.5 +/- 6.59 mg)
[26] = tested on: Spodoptera frugiperda; assay: Insecticidal activity against Spodoptera frugiperda (fall armyworm) assessed as mean weight gain at 39 ug/ml in artificial diet measured after 7 days (reference value: 469.5 +/- 6.59 mg)
[27] = tested on: Spodoptera frugiperda; assay: Insecticidal activity against Spodoptera frugiperda (fall armyworm) assessed as mean weight gain at 52 ug/ml in artificial diet measured after 7 days (reference value: 469.5 +/- 6.59 mg)
[28] = tested on: Spodoptera frugiperda; assay: Insecticidal activity against Spodoptera frugiperda (fall armyworm) assessed as mean weight gain at 52 ug/ml in artificial diet measured after 7 days (reference value: 75.5 +/- 8.24 mg)
[29] = tested on: Spodoptera frugiperda; assay: Insecticidal activity against Spodoptera frugiperda (fall armyworm) assessed as mean weight gain at 39 ug/ml in artificial diet measured after 7 days (reference value: 75.5 +/- 8.24 mg)
[30] = tested on: Spodoptera frugiperda; assay: Insecticidal activity against Spodoptera frugiperda (fall armyworm) assessed as mean weight gain at 25 ug/ml in artificial diet measured after 7 days (reference value: 75.5 +/- 8.24 mg)
[31] = tested on: Spodoptera frugiperda; assay: Insecticidal activity against Spodoptera frugiperda (fall armyworm) assessed as mean weight gain at 15 ug/ml in artificial diet measured after 7 days (reference value: 75.5 +/- 8.24 mg)
[32] = tested on: Spodoptera frugiperda; assay: Insecticidal activity against Spodoptera frugiperda (fall armyworm) assessed as mean weight gain at 10 ug/ml in artificial diet measured after 7 days (reference value: 75.5 +/- 8.24 mg)
[33] = tested on: Spodoptera frugiperda; assay: Insecticidal activity against Spodoptera frugiperda (fall armyworm) assessed as mean weight gain at 5 ug/ml in artificial diet measured after 7 days (reference value: 75.5 +/- 8.24 mg)
[34] = tested on: Spodoptera frugiperda; assay: Insecticidal activity against Spodoptera frugiperda (fall armyworm) assessed as mean length at 39 ug/ml in artificial diet measured after 7 days (reference value: 0.95 +/- 0.2 cm)
[35] = tested on: Spodoptera frugiperda; assay: Insecticidal activity against Spodoptera frugiperda (fall armyworm) assessed as mean length at 52 ug/ml in artificial diet measured after 7 days (reference value: 0.95 +/- 0.2 cm)
[36] = tested on: Spodoptera frugiperda; assay: Insecticidal activity against Spodoptera frugiperda (fall armyworm) assessed as mortality at 5 ug/ml in artificial diet measured after 7 days (reference value: 8.33%); details: 168 h
[37] = tested on: Spodoptera frugiperda; assay: Insecticidal activity against Spodoptera frugiperda (fall armyworm) assessed as mortality measured after 7 days; details: 168 h
[38] = tested on: Spodoptera frugiperda; assay: Insecticidal activity against Spodoptera frugiperda (fall armyworm) assessed as mortality at 52 ug/ml in artificial diet measured after 7 days (reference value: 8.33%); details: 168 h
[39] = tested on: Spodoptera frugiperda; assay: Insecticidal activity against Spodoptera frugiperda (fall armyworm) assessed as mortality at 39 ug/ml in artificial diet measured after 7 days (reference value: 8.33%); details: 168 h
[40] = tested on: Spodoptera frugiperda; assay: Insecticidal activity against Spodoptera frugiperda (fall armyworm) assessed as mortality at 25 ug/ml in artificial diet measured after 7 days (reference value: 8.33%); details: 168 h
[41] = tested on: Spodoptera frugiperda; assay: Insecticidal activity against Spodoptera frugiperda (fall armyworm) assessed as mortality at 15 ug/ml in artificial diet measured after 7 days (reference value: 8.33%); details: 168 h
[42] = tested on: Spodoptera frugiperda; assay: Insecticidal activity against Spodoptera frugiperda (fall armyworm) assessed as mortality at 10 ug/ml in artificial diet measured after 7 days (reference value: 8.33%); details: 168 h
[43] = tested on: Spodoptera frugiperda; assay: Insecticidal activity against Spodoptera frugiperda (fall armyworm) assessed as mean length at 25 ug/ml in artificial diet measured after 7 days (reference value: 0.95 +/- 0.2 cm)
[44] = tested on: Spodoptera frugiperda; assay: Insecticidal activity against Spodoptera frugiperda (fall armyworm) assessed as mean length at 15 ug/ml in artificial diet measured after 7 days (reference value: 0.95 +/- 0.2 cm)
[45] = tested on: Spodoptera frugiperda; assay: Insecticidal activity against Spodoptera frugiperda (fall armyworm) assessed as mean length at 10 ug/ml in artificial diet measured after 7 days (reference value: 0.95 +/- 0.2 cm)
[46] = tested on: Spodoptera frugiperda; assay: Insecticidal activity against Spodoptera frugiperda (fall armyworm) assessed as mean length at 5 ug/ml in artificial diet measured after 7 days (reference value: 0.95 +/- 0.2 cm)

Structure (SMILES): CC(=O)O[C@@H]1C[C@H]2C(C)(C)C(=O)C=C[C@]2(C)[C@H]2CC[C@@]3(C)[C@H](c4ccoc4)OC(=O)[C@H]4O[C@]43[C@@]21C [GEDUNIN]
- Activity [1]: 2.9 mm
- Activity [2]: 2.6 mm
- Activity [3]: 2.1 mm
- Activity [4]: 16.12 mg
- Activity [5]: 16.7%
- Activity [6]: 4.17%
- Activity [7]: 16.7%
- Activity [8]: 4.17%
- Time [9]: 33 days
- Time [10]: 35 days
- Time [11]: 36 days
- Activity [12]: 17.9%
- Time [13]: 22 days
- Time [14]: 23 days
- Time [15]: 24 days
- Activity [16]: 147.9 mg
- Activity [17]: 122.4 mg
- Activity [18]: 52 mg
- Activity [19]: 20.8%
- Activity [20]: 2 mm
- Activity [21]: 2.1 mm
- Activity [22]: 2.6 mm
- Activity [23]: 4.95 mg
- Activity [24]: 3.61 mg
- Activity [25]: 3.45 mg
- Activity [26]: 2.8 mg
- Activity [27]: 2.2 mg
- Activity [28]: 1.9 mg
- Activity [29]: 2.3 mg
- Activity [30]: 3.4 mg
- Activity [31]: 3.6 mg
- Activity [32]: 4.9 mg
- Activity [33]: 6.12 mg
- Activity [34]: 0.25 cm
- Activity [35]: 0.2 cm
- mortality at 5 µg/mL [36]: 25%
- LC50 [37]: 39 µg/mL (≈ 80.8 µM)
- mortality at 52 µg/mL [38]: 70.8%
- mortality at 39 µg/mL [39]: 48.3%
- mortality at 25 µg/mL [40]: 38.3%
- mortality at 15 µg/mL [41]: 33.3%
- mortality at 10 µg/mL [42]: 33.3%
- Activity [43]: 0.3 cm
- Activity [44]: 0.35 cm
- Activity [45]: 0.4 cm
- Activity [46]: 0.5 cm
